System: Anti-phencyclidine antibodies
Test: Ion-Capture Competitive Binding Assay For Phencyclidine (PCP) in Urine

SMILES: c1ccc(C2(N3CCCCC3)CCCCC2)cc1 [PCP, phencyclidine]
- % Bound (25 ng/mL PCP in urine, Side A): 83.00%
- % Bound (25 ng/mL PCP in urine, Side B): 85.50%
- % Bound (60 ng/mL PCP in urine, Side A): 94.60%
- % Bound (60 ng/mL PCP in urine, Side B): 94.19%
- % Bound (120 ng/mL PCP in urine, Side A): 97.44%
- % Bound (120 ng/mL PCP in urine, Side B): 97.54%
- % Bound (250 ng/mL PCP in urine, Side A): 99.28%
- % Bound (250 ng/mL PCP in urine, Side B): 99.32%
- % Bound (500 ng/mL PCP in urine, Side A): 100.00%
- % Bound (500 ng/mL PCP in urine, Side B): 100.00%

— patent US5441894A, “Device containing a light absorbing element for automated chemiluminescent immunoassays” (Abbott Laboratories, priority 1993, dated 1995)
